According to patent EP1650209A1, “Griseusin derivatives and their use as antitumor agents” (Oncotest GmbH, priority 2004, dated 2006):
≈ marks a conversion by molar mass, not a printed value.

Assays:
Test in all cases: Proliferation inhibition of cancer cells (propidium iodide fluorescence)
Assay type in all cases: cell-based, human
[1] = tested on: RXF 486L; conditions: Homo sapiens, 96 h, RXF 486L cell line, 4 days, read-out: IC50 value
Procedure: (§1) Using various human cancer cells in vitro, the concentrations of the test compounds (A, B, C, D, E, F), which inhibit the proliferation of cancer cells by 50% (IC50) and 70% (IC70) were determined. Specifically, each cell line of bladder cancer (BXF 1218L and T-24), glioblastoma (CNXF 498NL), colic cancer (HCT-116 and HT-29), gastric cancer (GXF 251 L), head and neck cancer (HNXF 536L), non small cell lung cancer (LXF 1121L, LXF 289L, LXF 526L, LXF 529L, LXF 629L and H-460), mammary cancer (MAXF 401NL, MCF-7, MDA-231 and MDA-468), melanoma (MEXF 276L, MEXF 394NL, MEXF 462NL, MEXF 514L and MEXF 520L), ovary cancer (OVXF 1619L, OVXF 899L and OVCAR-3), pancreatic cancer (PAXF 1657L and PANC-1), prostate cancer (22Rv1, DU-145, LNCaP and PC3M), pleuramesothelioma (PXF 1752L), renal cancer (RXF 1781 L, RXF 393NL, RXF 486L and RXF 944L), and uterine cancer (UXF 1138L) is added to a 96-well microtiter plate at a density of 3.6-11.2x10^3 cells per well in RPMI-1640 medium containing 10% fetal calf serum and 0.1% gentamicin and incubated for 24 hours. After 24 hours RPMI-1640 medium containing 10% fetal calf serum and 0.1% gentamicin, together with a test compound, is added thereto. Then, this plate is incubated at 37°C for 4 days in a humidified atmosphere of air containing 5% CO2. Thereafter, the cell culture medium with or without drug was replaced by 200 µl of an aqueous PI solution (7 µg/ml propidium iodide). Applying a freeze thaw cycle to permeabilize intact cell walls, staining of DNA was achieved, and the fluorescence of each well was measured using the Cy-tofluor 4000 microplate reader (excitation 530 nm, emission 620 nm), giving a direct relationship to the total cell number. Proliferation inhibition is expressed as test versus untreated control (T/C-value [%]). IC50 and IC70 values were determined by plotting compound concentration versus cell viability.

[2] = tested on: GXF 251 L; conditions: Homo sapiens, 96 h, GXF 251L cell line, 4 days, read-out: IC50 value
Procedure: as §1

[3] = tested on: MEXF 462NL; conditions: Homo sapiens, 96 h, MEXF 462NL cell line, 4 days, read-out: IC50 value
Procedure: as §1

[4] = tested on: UXF 1138L; conditions: Homo sapiens, 96 h, UXF 1138L cell line, 4 days, read-out: IC50 value
Procedure: as §1

[5] = tested on: MAXF 401NL; conditions: Homo sapiens, 96 h, MAXF 401NL cell line, 4 days, read-out: IC50 value
Procedure: as §1

[6] = tested on: LXFL 529L; conditions: Homo sapiens, 96 h, LXFL 529L cell line, 4 days, read-out: IC50 value
Procedure: as §1

| Structure (SMILES) | IC50 [1] | IC50 [2] | IC50 [3] | IC50 [4] | IC50 [5] | IC50 [6] |
| --- | --- | --- | --- | --- | --- | --- |
| COC(=O)CC1OC2(OC(C)CC(O)C2O)C2=C(C(=O)c3cccc(O)c3C2=O)C1O (stereo not drawn) [Compound E, 4-hydroxy-deacetylgriseusin B methylester] | 0.288 µg/mL (≈ 0.663 µM) | 0.393 µg/mL (≈ 0.905 µM) | 0.094 µg/mL (≈ 0.216 µM) | 0.377 µg/mL (≈ 0.868 µM) | 0.046 µg/mL (≈ 0.106 µM) | 3.87 µg/mL (≈ 8.9 µM) |
| COC(=O)CC1OC2(OC(C)CC(=O)C2O)C2=C(C(=O)c3cccc(O)c3C2=O)C1O (stereo not drawn) [Compound F, 4'-dehydro-4-hydroxy-deacetylgriseusin B methylester] | 0.053 µg/mL (≈ 0.123 µM) | 0.037 µg/mL (≈ 0.0856 µM) | 0.029 µg/mL (≈ 0.0671 µM) | 0.302 µg/mL (≈ 0.698 µM) | 0.034 µg/mL (≈ 0.0786 µM) | 0.158 µg/mL (≈ 0.365 µM) |
| CC1CC(O)C(O)C2(O1)OC1CC(=O)OC1C1=C2C(=O)c2c(O)cccc2C1=O (stereo not drawn) [Compound A, deacetylgriseusin A, reference compound] | 1.11 µg/mL (≈ 2.77 µM) | 3.06 µg/mL (≈ 7.62 µM) | 1.13 µg/mL (≈ 2.8 µM) | 8.08 µg/mL (≈ 20.1 µM) | 0.345 µg/mL (≈ 0.857 µM) | 8.95 µg/mL (≈ 22.2 µM) |
